Laboratory results from PMC12275099, “VX-445 (elexacaftor) inhibits chloride secretion across human bronchial epithelial cells by directly blocking KCa3.1 channels” (PNAS Nexus, 2025).

Experiments:
[1] = tested on: corrected F508del CFTR-expressing HBEs; assay: Ussing chamber Isc, forskolin plus VX-770-stimulated Cl- secretion; assay type: cell-based, human
Protocol: It has been proposed that, similar to potentiation of basolateral KCa3.1, potentiation of apical BKCa would further stimulate Cl^− secretion across HBEs by increasing the electrochemical driving force for Cl^− exit across the apical membrane ([18], [19]). To assess this possibility, we determined whether acute addition of VX-445 affects forskolin-mediated Cl^− secretion across primary WT CFTR-expressing HBEs, using Isc measurements. […] Note, as VX-445 is a lipophilic compound, it was added to both apical and basolateral membranes. The addition of bumetanide (20 µM) further reduced Isc, as expected. […] In a total of nine filters from three separate donors, VX-445 inhibited an average of 47 ± 2% of the current, subsequent to VX-661 (P < 0.01). […] The current observed following forskolin stimulation consists of both bumetanide-sensitive Cl^− secretion and bumetanide-insensitive HCO3− secretion ([32–34]). Thus, we determined whether VX-445 would inhibit the remaining current subsequent to bumetanide. […] Given the surprising inhibition of Cl^− secretion observed, we chose to stimulate Cl^− secretion via an alternate mechanism and assess the effect of VX-445. […] Thus, we determined the effect of VX-445 on the DCEBIO-induced Cl^− secretory response. […] We next determined whether VX-445 would similarly decrease the forskolin-stimulated transepithelial Cl^− currents in corrected F508del HBEs. […]

[2] = tested on: preconstricted mesenteric artery; set-up: method as in PMID 38954478; conditions: cited from earlier work
[3] = set-up: method as in PMID 36371965; conditions: patients with CF, converted; cited from earlier work
[4] = tested on: BKCa (KCa1.1, KCNMA1) channels; set-up: method as in PMID 38954478; conditions: primary HBEs and HEK cells heterologously expressing the channel; cited from earlier work

**Q.** For Cc1nn(C)cc1S(=O)(=O)NC(=O)c1ccc(-n2ccc(OCC(C)(C)C(F)(F)F)n2)nc1N1C[C@@H](C)CC1(C)C [VX-445, elexacaftor], which “Isc in the presence of VX-445” value ([1]; Fig 1J, single filters, VX-445 10 µM after forskolin/VX-770) is on record?
**A.** 10

**Q.** What about the “decrease in forskolin plus VX-770-stimulated Isc” value ([1]; acute VX-445 10 µM, F508del corrected overnight with VX-445 1 µM plus VX-661 3 µM, 35 filters from five donors) of the same compound?
**A.** 64 ± 2%

**Q.** And the “effect on preconstricted mesenteric artery” value [2]?
**A.** capable of relaxing preconstricted mesenteric artery

**Q.** And the “mean concentration in nasal brushing cell lysates, upper end” value [3]?
**A.** ~9 µM

**Q.** What about the “effect on BKCa” value [4] of the same compound?
**A.** act as direct potentiators
